Experimental findings from US7794987B2, “Method for treating central neuropathic pain” (UCB Pharma GmbH, priority 2003, dated 2010) are described below.

Molecules are shown by their SMILES.

For assay [1], the system named is spinally injured rats. Briefly: Single dose of SPM 927 on allodynia-like behaviours in spinally injured rats (von Frey hairs, brushing, cold). The class given is in vivo, Sprague-Dawley rats. As to conditions: intraperitoneally. On the procedure: (§1) Male and female Sprague-Dawley rats (Möllegard, Denmark) weighing 200-250 g at the start of the experiments were used.
(§2) Ischemic spinal cord injury was produced in female rats according to methods described previously (Xu et al., 1992). In brief, the rats were anesthetized with chloral hydrate (300 mg/kg, i.p.) and a midline incision was made on the skin overlying vertebral segments T12-L1. The animals were positioned beneath an argon laser beam and irradiated for 10 min with the beam directed towards vertebral segment T12 or T13 (spinal segments L3-5). Immediately prior to and 5 min after the start of the irradiation, erythrosin B (Red No 3, Aldrich-Chemie, Steinheim, Germany) dissolved in 0.9% saline was injected intravenously through the tail vein at a dose of 32.5 mg/kg. A tunable argon ion laser (Innova model 70, Coherent Laser Product Division, Palo Alto, Calif.) operating at 514 nm was used. The average beam output power was 160 mW. The beam covered the entire width of the vertebra and the length of the beam was 1-2 mm. After irradiation, the wound was closed in layers and the rats were allowed to recover. The bladder was emptied manually for 1 week.
(§3) The vocalization threshold to graded mechanical touch/pressure stimuli were tested with von Frey hairs. During testing the rats were gently restrained in a standing position and the von Frey hair was pushed onto the skin until the filament became bent. The frequency of stimulation was about 1/s and at each intensity the stimulus was applied 5-10 times. The intensity of stimulation which induced consistent vocalization (>75% response rate) was considered as pain threshold.
(§4) The response of rats to brushing stimulation was tested with the blunt point of a pencil gently stroking the skin on the trunk in a rostro-caudal direction. The frequency of the stimulation was about 1/s and responses were graded with a score of 0=no observable response; 1=transient vocalization and moderate effort to avoid probe; 2=consistent vocalization and aversive reactions and 3=sustained and prolonged vocalization and aggressive behaviours.
(§5) Response to cold was tested with ethyl chloride spray applied to the shaved allodynic skin area. The response was graded with a score of 0=no observable response; 1=localized response (skin twitch and contraction), no vocalization; 2=transient vocalization, moderate struggle and 3=sustained vocalization and aggression.
(§6) SPM 927 was dissolved in physiological saline and injected intraperitoneally. The data for von Frey hairs, brushing and cold are expressed as median±median absolute deviation (M.A.D.) and analysed with Wilcoxon signed-ranks test or paired t-test.

The subject of assay [2] is spinally injured rats. Briefly: Repeated administration of SPM 927 in spinally injured rats (von Frey hairs, brushing, cold). The class given is in vivo, Sprague-Dawley rats. To be noted: 20 mg/kg twice a day. On the procedure: as §1, §2, §3, §4, §5, §6
The animals were injected with 20 mg/kg SPM 927 twice a day. The pre-drug response and the response 1 h after injection were assessed in the morning session. […] The normalization of basal sensitivity lasted at least 8 days without signs of tolerance.

In the case of `COC[C@@H](NC(C)=O)C(=O)NCc1ccccc1` [SPM 927, (R)-2-acetamide-N-benzyl-3-methoxypropionamide], the “effect on mechanical and cold allodynia” value with spinally injured rats [1] (10 mg/kg) was “no effect”. Moreover, in the assay on spinally injured rats [1] (15 mg/kg), the “effect on mechanical and cold allodynia” value is “partially alleviated mechanical and cold allodynia in the majority, but not all, rats”. The “effect on brushing and cold” value in the assay on spinally injured rats [1] (15 mg/kg, FIG. 1B, C) is recorded as “significant effect”. The “increase in threshold to stimulation with von Frey hairs” value with spinally injured rats [1] (15 mg/kg, FIG. 1a) is reported as “significant, but did not return to normal level”. Further, in the assay on spinally injured rats [1] (20 mg/kg), the “duration of complete reversal of mechanical and cold allodynia” value was “about 2 h”; the “effect on mechanical and cold allodynia” value was “completely reversed mechanical and cold allodynia in all rats”. Moreover, the “vocalization threshold to von Frey hair stimulation 1 h after injection” value in the assay on spinally injured rats [2] (days 1-3) is given as “increase in vocalization threshold”. In the assay with spinally injured rats [2] (discontinued after day 7), the “allodynia to stimulation with von Frey hairs and cold after discontinuation” value is recorded as “reappeared on day 9”; the “effect on brush stimulation after discontinuation” value is recorded as “maintained up to day 11”. Further, the “pre-drug response to von Frey hair stimulation” value in the assay with spinally injured rats [2] (FIG. 2A) is listed as “normalized on day 4”. Besides, in the assay on spinally injured rats [2] (FIG. 2B, 2C), the “baseline responses to brushing and cold” value is recorded as “normalized from day 2 to day 6 respectively”. Besides, the “duration of normalization of basal sensitivity” value in the assay on spinally injured rats [2] (without signs of tolerance) was “at least 8 days”.
